pIC50: −log10 of the molar value. Some results are limits rather than exact numbers.

One may read the pIC50 as the negative decadic logarithm of the IC50, by convention in mol/L. Lower therefore signals a high IC50.

One data set deals with human Factor Xa (Homo sapiens (Human), UniProt P00742). As to the kind of experiment: Assay C: human Factor Xa chromogenic substrate assay. It counts as biochemical. Particulars: for pIC50: human Factor Xa 0.86 nM, chromogenic substrate S2765; for Selectivity Assay C/Assay A: ratio IC50 Factor Xa / IC50 IDO1. How it is done:
Assay C. In Vitro Testing of Human Factor Xa Potency:
Measurement of active human Factor Xa using a specific chromogenic substrate which is labeled with a p-nitro-anilino group (pNA). The cleavage in between the binding of the peptide substrate and the pNA-group is followed by a color change, which can be detected at 405 nm. The amount of cleaved substrate is directly proportional to the amount of active Xa.
[…] (100 U) human Factor Xa (Enzyme Research Laboratories; HFXa1011) were solved in 0.444 ml H2O (Millipore), which accords to a stock solution of 19.28 μM or 225 U/ml. Further dilutions were made in the assay buffer (Tris 100 mM, NaCL 150 mM, adjusted to a pH of 7.8 with HCL, containing 0.1% BSA and 0.05% Tween20). 25 mg (1 vial) of the chromogenic substrate S2765 (Chromogenix; S2765) was solved in 3.5 ml H2O (Millipore) to achieve a stock solution of 10 mM.
Compounds were solved and diluted in DMSO where the final dilution in the assay is 1:10 resulting in a final concentration of 1% DMSO.
• the prefinal dilution step was 1:10 in the assay buffer containing 11% DMSO resulting in 10% DMSO • final dilution in the assay is 1:10 resulting in a final concentration of 1% DMSO
Compounds were tested at final concentrations of 10 μM to 0.003 nM or lower. 5 μl human factor Xa (final concentration 0.86 nM), 2 μl compound dilution or assay buffer (containing 10% DMSO) and 8 μl assay buffer were pipetted in triplicates into a 384-well plate and incubated in the Thermomix at 24° C. for 10 minutes.
After addition of 5 μl chromogenic substrate (final concentration 0.5 mM) the enzyme-substrate reaction started and the kinetic measurement with the SpectraMax Monochromator was started within 1-2 minutes. • Parameter of measurement: (Spectra ax, Monochromator) • Absorbance; 1.LM 405 nM • Kinetic: 16 min each 2nd minute (9 times) • Negative Control (NC) 5 μl human factor Xa+10 μl assay buffer+5 μl Substrate • Positive Control (PC): 5 μl human factor Xa+2 μl Nafamostat (commercially available, final concentration: 1 μM)+8 μl assay buffer+5 μl Substrate • Blank (optional): 15 μl assay buffer+5 μl Substrate
Calculation of IC50, KI and the % effect at the highest concentration (Ratio)
For the calculation the average of the Vmax-values in between 120 sec to 720 sec were taken.
A x/y-Plot was created: x=log (M, Compound); y=vmax (drfu/min)
The data were analyzed with the curve fitting model: log (inhibitor) vs. response—Variable slope (four parameters)
The results of this fit were Top, Bottom, Log (IC50, M), Hillslope and IC50 (M)

A further data set addresses MDR1 (P-gp) (Homo sapiens (Human), UniProt P08183). Put plainly: Assay E: MDCK assay MDR-1 (P-gp). Particulars: for efflux ratio at 2 h, 10 μM: human, MDCK-MDR1, pH 7.4, Table 7, final test concentration 10 μM, read-out: MDCK-MDR1 efflux ratio (Assay E). It counts as in vitro ADME. How it is done: The MDCK assays provide information on the potential of a compound to pass the blood brain barrier. Permeability measurements across polarized, confluent MDCK-MDR1 cell monolayers grown on permeable filter supports are used as an in vitro absorption model: apparent permeability coefficients (PE) of the compounds across the MDCK-MDR1 cell monolayers are measured (pH 7.4, 37° C.) in apical-to-basal (AB) and basal-to-apical (BA) transport direction. The AB permeability (PEAB) represents drug absorption from the blood into the brain and the BA permeability (PEBA) drug efflux from the brain back into the blood via both, passive permeability as well as active transport mechanisms mediated by efflux and uptake transporters that are expressed on the MDCK-MDR1 cells, predominantly by the overexpressed human MDR1. Identical or similar permeabilities in both transport directions indicate passive permeation, vectorial permeability points to additional active transport mechanisms. Higher PEBA than PEAB (PEBA/PEAB >3) indicates the involvement of active efflux mediated by MDR1, which might compromise the goal to achieve sufficient brain exposure.
Assay E. MDCK assay MDR-1 (P-gp)
Apparent permeability coefficients (Papp) of the compounds across MDCK-MDR1 monolayers (MDCKII cells transfected with human MDR1 gene) are measured in apical-to-basal (AB) and basal-to-apical (BA) direction.
MDCK-MDR1 cells (6×10^5 cells/cm^2) are seeded onto filter inserts (Corning, Transwell, polycarbonate, 0.4 μm pore size) and cultured for 9 to 10 days. Compounds dissolved in DMSO stock solution (1-20 mM) are diluted with HTP-4 buffer (128.13 mM NaCl, 5.36 mM KCl, 1 mM MgSO4, 1.8 mM CaCl2, 4.17 mM NaHCO3, 1.19 mM Na2HPO4, 0.41 mM NaH2PO4, 15 mM HEPES, 20 mM glucose, pH 7.4) supplemented with 0.25% BSA to prepare the transport solutions, resulting in a final test concentration of 1 μM or 10 μM and a final DMSO content of 0.5%. The transport solution is applied to the apical or basolateral donor side for measuring A-B or B-A permeability, respectively. The receiver side contains HTP-4 buffer supplemented with 0.25% BSA. Samples are collected at the start and end of experiment from the donor and at various time intervals for up to 2 hours from the receiver side for concentration measurement by HPLC-MS/MS. Sampled receiver volumes are replaced with fresh receiver solution.
All data reported for Assay E were measured with a final test concentration of 10 μM.

Chain of MDR1 (P-gp) (P08183 whole entry): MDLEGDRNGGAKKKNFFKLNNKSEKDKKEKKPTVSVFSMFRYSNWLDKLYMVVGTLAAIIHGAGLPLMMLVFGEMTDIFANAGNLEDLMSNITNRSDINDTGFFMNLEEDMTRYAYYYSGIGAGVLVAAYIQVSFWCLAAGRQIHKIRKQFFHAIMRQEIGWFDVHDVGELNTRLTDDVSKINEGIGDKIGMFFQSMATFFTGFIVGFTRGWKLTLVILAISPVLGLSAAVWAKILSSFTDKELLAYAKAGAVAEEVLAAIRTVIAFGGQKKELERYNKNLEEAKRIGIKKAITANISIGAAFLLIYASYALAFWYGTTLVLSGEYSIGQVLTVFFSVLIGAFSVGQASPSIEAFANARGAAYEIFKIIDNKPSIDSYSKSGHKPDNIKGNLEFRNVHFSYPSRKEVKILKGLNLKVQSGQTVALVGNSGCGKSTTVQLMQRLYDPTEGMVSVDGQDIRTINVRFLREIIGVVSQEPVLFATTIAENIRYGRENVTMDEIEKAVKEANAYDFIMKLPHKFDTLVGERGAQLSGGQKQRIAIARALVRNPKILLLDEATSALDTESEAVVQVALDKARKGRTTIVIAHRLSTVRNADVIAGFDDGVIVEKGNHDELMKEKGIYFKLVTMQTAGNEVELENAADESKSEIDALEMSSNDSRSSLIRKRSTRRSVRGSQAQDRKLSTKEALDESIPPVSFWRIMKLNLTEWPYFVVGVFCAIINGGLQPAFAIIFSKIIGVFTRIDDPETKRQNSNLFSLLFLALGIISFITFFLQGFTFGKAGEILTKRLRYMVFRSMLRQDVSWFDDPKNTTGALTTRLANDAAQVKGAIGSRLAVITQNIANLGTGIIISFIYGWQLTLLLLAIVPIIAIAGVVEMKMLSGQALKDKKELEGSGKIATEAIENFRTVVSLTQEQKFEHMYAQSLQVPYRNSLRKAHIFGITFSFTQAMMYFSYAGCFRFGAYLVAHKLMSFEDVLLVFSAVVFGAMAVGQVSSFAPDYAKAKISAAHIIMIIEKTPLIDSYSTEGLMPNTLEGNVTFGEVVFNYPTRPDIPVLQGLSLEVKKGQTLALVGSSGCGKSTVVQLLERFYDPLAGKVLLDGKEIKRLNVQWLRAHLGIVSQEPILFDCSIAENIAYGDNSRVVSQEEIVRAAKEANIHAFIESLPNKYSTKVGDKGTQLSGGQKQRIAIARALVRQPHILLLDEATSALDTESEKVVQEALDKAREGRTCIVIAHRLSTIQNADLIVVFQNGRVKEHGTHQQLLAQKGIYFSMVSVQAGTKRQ
Chain of human Factor Xa (P00742 235-488): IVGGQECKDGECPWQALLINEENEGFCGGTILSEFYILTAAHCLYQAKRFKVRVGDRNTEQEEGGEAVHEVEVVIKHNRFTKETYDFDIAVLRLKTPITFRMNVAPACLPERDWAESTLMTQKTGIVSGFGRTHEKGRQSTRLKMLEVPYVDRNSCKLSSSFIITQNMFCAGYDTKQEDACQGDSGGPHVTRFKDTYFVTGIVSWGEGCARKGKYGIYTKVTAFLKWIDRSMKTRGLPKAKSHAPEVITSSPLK
Chain of human Factor Xa (P00742 41-179 partner): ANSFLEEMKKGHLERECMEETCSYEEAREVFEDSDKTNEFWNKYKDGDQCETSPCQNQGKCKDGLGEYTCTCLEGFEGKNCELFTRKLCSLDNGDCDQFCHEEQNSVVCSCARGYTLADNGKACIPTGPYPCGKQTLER

Regarding `CC(C)(NC(=O)c1ccc(Cl)s1)C(=O)Nc1ccc(Cl)c(F)c1` [Example 3, 2-[(5-chlorothiophen-2-yl)formamido]-N-(4-chloro-3-fluorophenyl)-2-methylpropanamide], on human Factor Xa, the pIC50 was under 5.00 and the “Selectivity Assay C/Assay A” value is recorded as over 55. Moreover, on MDR1 (P-gp), the “in vitro efflux, MDCK-MDR1 (in words)” value is “neither in vitro nor in vivo efflux” and the efflux ratio at 2 h, 10 μM is 0.5.
Consider `CC(C)(NC(=O)c1ccc(Cl)s1)C(=O)Nc1ccc(Br)cc1` [Example 4, 2-[(5-chlorothiophen-2-yl)formamido]-N-(4-bromophenyl)-2-methylpropanamide], for which, at human Factor Xa, the pIC50 was under 5.00 and the “Selectivity Assay C/Assay A” value is listed as over 42. At MDR1 (P-gp), the “in vitro efflux, MDCK-MDR1 (in words)” value is listed as “neither in vitro nor in vivo efflux” and the efflux ratio at 2 h, 10 μM was 0.5.

The values are drawn from patent US11691960B2, “2-[thiophen-2-yl)formamido]-N-(phenyl)-2-methylpropanamide derivatives and the use thereof as medicament” (Boehringer Ingelheim International GmbH, priority 2020, dated 2023).
